Our source for the IC50 values is US9670227B2, “Thienopyrimidine derivatives, a process for their preparation and pharmaceutical compositions containing them” (LES LABORATOIRES SERVIER, priority 2013, dated 2017).

Like-named read-outs stand apart in the source and are kept apart here.

In one experiment the target is Mcl-1 protein (UniProtKB primary accession number: Q07820) (Homo sapiens, UniProt Q07820). Put plainly: Inhibition of Mcl-1 by fluorescence polarisation, Method 1. Format: binding. The note with it: read-out: IC50 (M) Mcl-1 FP. In outline:
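Fluorescence polarisation competition with an 11-point compound dilution series (final DMSO 5%). Mcl-1 protein at 5 nM and fluorescein-labelled ligand at 1 nM (final) in 10 mM HEPES, 150 mM NaCl, 0.05% Tween 20, pH 7.4.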

The test system of experiment [1] is H929 multiple myeloma tumour line. The experiment in a line: In vitro cytotoxicity, Microculture Tetrazolium Assay. The note with it: H929 cells, 48 hours exposure, MTT, read-out: IC50 (μM) MTT H929. Format: cell-based. As to the method: The cytotoxicity studies were carried out on the H929 multiple myeloma tumour line.
The cells are distributed onto microplates and exposed to the test compounds for 48 hours.

[2] abbreviates: fluorescence polarisation, Method 1, or Method 2.
Where [3] appears, read: fluorescence polarisation test, Method 2 values are underlined in the patent (underlining not visible here).

Mcl-1 protein, sequence (Q07820 whole entry): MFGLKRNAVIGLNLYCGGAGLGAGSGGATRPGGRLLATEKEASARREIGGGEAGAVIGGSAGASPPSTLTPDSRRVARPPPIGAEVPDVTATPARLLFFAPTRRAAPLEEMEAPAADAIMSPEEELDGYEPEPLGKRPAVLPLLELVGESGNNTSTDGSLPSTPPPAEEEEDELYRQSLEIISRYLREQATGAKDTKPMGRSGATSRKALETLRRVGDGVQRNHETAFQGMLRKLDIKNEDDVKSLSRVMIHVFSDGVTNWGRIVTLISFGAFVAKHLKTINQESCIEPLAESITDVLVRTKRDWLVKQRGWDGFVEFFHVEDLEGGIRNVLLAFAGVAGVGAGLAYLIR

For the compound `CC#Cc1sc2ncnc(O[C@H](Cc3ccccc3OC)C(=O)O)c2c1-c1cc(C)c(OCCN2CCN(C)CC2)c(Cl)c1C` [Example 475, (2R)-2-{[(5Sa)-5-{3-chloro-2,5-dimethyl-4-[2-(4-methylpiperazin-1-yl)ethoxy]phenyl}-6-(prop-1-yn-1-yl)thieno[2,3-d]pyrimidin-4-yl]oxy}-3-(2-methoxyphenyl)propanoic acid], the IC50 (commonly the concentration that inhibits the measured activity by half) at Mcl-1 protein (setting [2]) is 6.8e-09 M; in experiment [1], 1.12 µM.

As to `Cc1c(-c2c(-c3ccc(F)cc3)sc3ncnc(OC(Cc4ccccc4OCc4ccnc(-c5ccc(Cl)nc5)n4)C(=O)O)c23)ccc(OCCN2CCN(C)CC2)c1Cl` [Example 110, (2R)-2-{[(5Sa)-5-{3-chloro-2-methyl-4-[2-(4-methylpiperazin-1-yl)ethoxy]phenyl}-6-(4-fluorophenyl)thieno[2,3-d]pyrimidin-4-yl]oxy}-3-(2-{[2-(6-chloropyridin-3-yl)pyrimidin-4-yl]methoxy}phenyl)propanoic acid], the IC50 on Mcl-1 protein (setting [3]) was 4.3e-09 M; in experiment [1] (Homo sapiens, NCI-H929, 48 h) it was 0.022 µM.

As for `Cc1ccc(-c2nccc(COc3ccccc3CC(Oc3ncnc4sc(-c5ccc(F)cc5)c(-c5ccc(OCCN6CCN(C)CC6)c(Cl)c5C)c34)C(=O)O)n2)cn1` [Example 108, (2R)-2-{[(5Sa)-5-{3-chloro-2-methyl-4-[2-(4-methylpiperazin-1-yl)ethoxy]phenyl}-6-(4-fluorophenyl)thieno[2,3-d]pyrimidin-4-yl]oxy}-3-(2-{[2-(6-methylpyridin-3-yl)pyrimidin-4-yl]methoxy}phenyl)propanoic acid], the IC50 at Mcl-1 protein (setting [3]) amounted to 3.5e-09 M; in experiment [1] (Homo sapiens, NCI-H929, 48 h), 0.007 µM.

With `CSc1nccc(COc2ccccc2CC(Oc2ncnc3sc(-c4ccc(F)cc4)c(-c4ccc(OCCN5CCN(C)CC5)c(Cl)c4C)c23)C(=O)O)n1` [Example 65, (2R)-2-{[(5Sa)-5-{3-chloro-2-methyl-4-[2-(4-methylpiperazin-1-yl)ethoxy]phenyl}-6-(4-fluorophenyl)thieno[2,3-d]pyrimidin-4-yl]oxy}-3-(2-{[2-(methylsulfanyl)pyrimidin-4-yl]methoxy}phenyl)propanoic acid], the IC50 on Mcl-1 protein (setting [3]) stood at 1e-08 M; in experiment [1] (Homo sapiens, NCI-H929, 48 h) it was 0.043 µM.

For the compound `COc1nccc(COc2ccccc2CC(Oc2ncnc3sc(-c4ccc(F)c(OCCN5CCOCC5)c4)c(-c4ccc(OCCN5CCN(C)CC5)c(Cl)c4C)c23)C(=O)O)n1` [Example 596, (2R)-2-[((5Sa)-5-{3-chloro-2-methyl-4-[2-(4-methylpiperazin-1-yl)ethoxy]phenyl}-6-{4-fluoro-3-[2-(morpholin-4-yl)ethoxy]phenyl}thieno[2,3-d]pyrimidin-4-yl)oxy]-3-{2-[(2-methoxypyrimidin-4-yl)methoxy]phenyl}propanoic acid], the IC50 at Mcl-1 protein (setting [2]) worked out at 2.7e-09 M; in experiment [1] (Homo sapiens, NCI-H929, 48 h) it was 0.12 µM.

For the compound `Cc1ncccc1-c1nccc(COc2ccccc2CC(Oc2ncnc3sc(-c4ccc(F)cc4)c(-c4ccc(OCCN5CCN(C)CC5)c(Cl)c4C)c23)C(=O)O)n1` [Example 116, (2R)-2-{[(5Sa)-5-{3-chloro-2-methyl-4-[2-(4-methylpiperazin-1-yl)ethoxy]phenyl}-6-(4-fluorophenyl)thieno[2,3-d]pyrimidin-4-yl]oxy}-3-(2-{[2-(2-methylpyridin-3-yl)pyrimidin-4-yl]methoxy}phenyl)propanoic acid], the IC50 amounted to 2.9e-09 M at Mcl-1 protein (setting [3]) and 0.007 µM in experiment [1] (Homo sapiens, NCI-H929, 48 h).

For the compound `COc1cccc(-c2sc3ncnc(OC(Cc4ccccc4OC)C(=O)O)c3c2-c2ccc(OCCN3CCN(C)CC3)c(Cl)c2C)c1` [Example 554, (2R)-2-{[(5Sa)-5-{3-chloro-2-methyl-4-[2-(4-methylpiperazin-1-yl)ethoxy]phenyl}-6-(3-methoxyphenyl)thieno[2,3-d]pyrimidin-4-yl]oxy}-3-(2-methoxyphenyl)propanoic acid], the IC50 at Mcl-1 protein (setting [2]) was found to be 2.4e-08 M; in experiment [1] (Homo sapiens, NCI-H929, 48 h), 0.177 µM.

As for `Cc1c(-c2c(-c3ccc(F)cc3)sc3ncnc(OC(Cc4ccccc4OCc4cnccn4)C(=O)O)c23)ccc(OCCCC2CCCN2C)c1Cl` [Example 146, (2R)-2-{[(5Sa)-5-{3-chloro-2-methyl-4-[3-(1-methylpyrrolidin-2-yl)propoxy]phenyl}-6-(4-fluorophenyl)thieno[2,3-d]pyrimidin-4-yl]oxy}-3-[2-(pyrazin-2-ylmethoxy)phenyl]propanoic acid], the IC50 at Mcl-1 protein (setting [3]) is 3.5e-08 M; in experiment [1] (Homo sapiens, NCI-H929, 48 h), 1.16 µM.

Consider `Cc1c(-c2c(-c3ccc(F)cc3)sc3ncnc(OC(Cc4ccccc4OCc4ccnc(Oc5ccccc5)n4)C(=O)O)c23)ccc(OCCN2CCN(C)CC2)c1Cl` [Example 56, (2R)-2-{[(5Sa)-5-{3-chloro-2-methyl-4-[2-(4-methylpiperazin-1-yl)ethoxy]phenyl}-6-(4-fluorophenyl)thieno[2,3-d]pyrimidin-4-yl]oxy}-3-{2-[(2-phenoxypyrimidin-4-yl)methoxy]phenyl}propanoic acid], for which the IC50 was 4.4e-09 M on Mcl-1 protein (setting [3]) and 0.022 µM in experiment [1] (Homo sapiens, NCI-H929, 48 h).

In the case of `C#Cc1ccc(-c2sc3ncnc(OC(Cc4ccccc4OC)C(=O)O)c3c2-c2ccc(OCCN3CCN(C)CC3)c(Cl)c2C)o1` [Example 578, (2R)-2-{[(5Sa)-5-{3-chloro-2-methyl-4-[2-(4-methylpiperazin-1-yl)ethoxy]phenyl}-6-(5-ethynylfuran-2-yl)thieno[2,3-d]pyrimidin-4-yl]oxy}-3-(2-methoxyphenyl)propanoic acid], the IC50 at Mcl-1 protein (setting [2]) amounted to 3.8e-08 M; in experiment [1] (Homo sapiens, NCI-H929, 48 h), 0.347 µM.

Take `COCCCSc1nccc(COc2ccccc2CC(Oc2ncnc3sc(-c4ccc(F)cc4)c(-c4ccc(OCCN5CCN(C)CC5)c(Cl)c4C)c23)C(=O)O)n1` [Example 66, (2R)-2-{[(5Sa)-5-{3-chloro-2-methyl-4-[2-(4-methylpiperazin-1-yl)ethoxy]phenyl}-6-(4-fluorophenyl)thieno[2,3-d]pyrimidin-4-yl]oxy}-3-[2-({2-[(3-methoxypropyl)sulfanyl]pyrimidin-4-yl}methoxy)phenyl]propanoic acid]: the IC50 at Mcl-1 protein (setting [3]) worked out at 4.6e-09 M; in experiment [1] (Homo sapiens, NCI-H929, 48 h), 0.037 µM.

As to `COc1cccc(-c2nccc(COc3ccccc3CC(Oc3ncnc4sc(-c5ccc(F)cc5)c(-c5ccc(OCCN6CCN(C)CC6)c(Cl)c5C)c34)C(=O)O)n2)c1` [Example 112, (2R)-2-{[(5Sa)-5-{3-chloro-2-methyl-4-[2-(4-methylpiperazin-1-yl)ethoxy]phenyl}-6-(4-fluorophenyl)thieno[2,3-d]pyrimidin-4-yl]oxy}-3-(2-{[2-(3-methoxyphenyl)pyrimidin-4-yl]methoxy}phenyl)propanoic acid], the IC50 on Mcl-1 protein (setting [3]) is 5.6e-09 M; in experiment [1] (Homo sapiens, NCI-H929, 48 h) it was 0.011 µM.

Turning to `CCc1sc2ncnc(OC(Cc3ccccc3)C(=O)O)c2c1-c1ccc(OCCc2cccnc2)c(Cl)c1C` [Example 396, (2R)-2-[((5Sa)-5-{3-chloro-2-methyl-4-[2-(pyridin-3-yl)ethoxy]phenyl}-6-ethylthieno[2,3-d]pyrimidin-4-yl)oxy]-3-phenylpropanoic acid], the IC50 at Mcl-1 protein (setting [2]) was 9.9e-08 M; in experiment [1] (Homo sapiens, NCI-H929, 48 h) it was 16.1 µM.

Turning to `CC#Cc1sc2ncnc(OC(Cc3ccccc3OC)C(=O)O)c2c1-c1ccc(OCCN2CCNCC2)c(Cl)c1C` [Example 684, (2R)-2-{[(5Sa)-5-{3-chloro-2-methyl-4-[2-(piperazin-1-yl)ethoxy]phenyl}-6-(prop-1-yn-1-yl)thieno[2,3-d]pyrimidin-4-yl]oxy}-3-(2-methoxyphenyl)propanoic acid], the IC50 was 1.9e-08 M on Mcl-1 protein (setting [2]) and 2.23 µM in experiment [1] (Homo sapiens, NCI-H929, 48 h).

With `Cc1c(-c2c(-c3ccc(F)cc3)sc3ncnc(OC(Cc4ccccc4OCc4ccnc(Cc5ccccc5)n4)C(=O)O)c23)ccc(OCCN2CCN(C)CC2)c1Cl` [Example 40, (2R)-3-{2-[(2-benzylpyrimidin-4-yl)methoxy]phenyl}-2-{[(5Sa)-5-{3-chloro-2-methyl-4-[2-(4-methylpiperazin-1-yl)ethoxy]phenyl}-6-(4-fluorophenyl)thieno[2,3-d]pyrimidin-4-yl]oxy}propanoic acid], the 50% inhibitory concentration (IC50) on Mcl-1 protein (setting [3]) was determined as 5.6e-09 M; in experiment [1] (Homo sapiens, NCI-H929, 48 h), 0.008 µM.

Take `Cc1c(-c2c(-c3ccc(F)o3)sc3ncnc(OC(Cc4ccccc4OCc4ccnc(OCC(F)(F)F)n4)C(=O)O)c23)ccc(OCCN2CCN(C)CC2)c1Cl` [Example 178, (2R)-2-{[(5Sa)-5-{3-chloro-2-methyl-4-[2-(4-methylpiperazin-1-yl)ethoxy]phenyl}-6-(5-fluorofuran-2-yl)thieno[2,3-d]pyrimidin-4-yl]oxy}-3-(2-{[2-(2,2,2-trifluoroethoxy)pyrimidin-4-yl]methoxy}phenyl)propanoic acid]: the IC50 at Mcl-1 protein (setting [3]) is 6.3e-09 M; in experiment [1] (Homo sapiens, NCI-H929, 48 h) it was 0.002 µM.

`COCCOc1cc(-c2sc3ncnc(OC(Cc4ccccc4OCc4ccnc(OC)n4)C(=O)O)c3c2-c2ccc(OCCN3CCN(C)CC3)c(Cl)c2C)ccc1F` [Example 598, (2R)-2-[((5Sa)-5-{3-chloro-2-methyl-4-[2-(4-methylpiperazin-1-yl)ethoxy]phenyl}-6-[4-fluoro-3-(2-methoxyethoxy)phenyl]thieno[2,3-d]pyrimidin-4-yl)oxy]-3-{2-[(2-methoxypyrimidin-4-yl)methoxy]phenyl}propanoic acid]: the IC50 at Mcl-1 protein (setting [2]) was 7.8e-09 M; in experiment [1] (Homo sapiens, NCI-H929, 48 h), 0.097 µM.

`CCCCNC(=O)COc1ccccc1CC(Oc1ncnc2sc(-c3ccco3)c(-c3ccc(OCCN4CCN(C)CC4)c(Cl)c3C)c12)C(=O)O` [Example 220, (2R)-3-{2-[2-(butylamino)-2-oxoethoxy]phenyl}-2-{[(5Sa)-5-{3-chloro-2-methyl-4-[2-(4-methylpiperazin-1-yl)ethoxy]phenyl}-6-(furan-2-yl)thieno[2,3-d]pyrimidin-4-yl]oxy}propanoic acid]: the IC50 at Mcl-1 protein (setting [3]) amounted to 9e-09 M; in experiment [1] (Homo sapiens, NCI-H929, 48 h), 0.277 µM.
